# Columns and labels:
# Assay in all cases: relative viability (nuclei count vs DMSO), 5 days (fraction); higher = more cells survive
# [1] = compound: C1COCCN1C2=NC(=NC3=C2OC4=C3C=CC=N4)C5=CC(=CC=C5)NC(=O)C6=CN=C(C=C6)N + COc1cc2c(Oc3ccc(NC(=O)C4(C(=O)Nc5ccc(F)cc5)CC4)cc3F)ccnc2cc1OCCCN1CCOCC1 [Foretinib] (partner 0.25 µM)
# In short: (§1)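 Values are medians from duplicate plates. Each reflects relative viability, defined as the nuclei count of treated wells over that of vehicle wells. Lung cancer cell lines in 1536-well plates were pin-tool dosed one day after seeding with one drug alone or with a fixed anchor-drug dose plus five library-drug doses (not always all listed) in √10 steps, then fixed, stained and imaged at 4× after 5 days.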
# [2] = compound: CN1CCC(CNc2ccc3ncc(-c4cccc(OC(F)(F)F)c4)n3n2)CC1 [SGI-1776] + COc1cc2c(Oc3ccc(NC(=O)C4(C(=O)Nc5ccc(F)cc5)CC4)cc3F)ccnc2cc1OCCCN1CCOCC1 [Foretinib] (partner 0.25 µM)
# In short: as §1
# [3] = compound: Nc1ccccc1NC(=O)c1ccc(CNC(=O)OCc2cccnc2)cc1 [Entinostat] + CC(C)C[C@H](NC(=O)[C@H](Cc1ccccc1)NC(=O)c1cnccn1)B(O)O [Bortezomib] (partner 0.002 µM)
# In short: as §1
# [4] = compound: Nc1ccccc1NC(=O)c1ccc(CNC(=O)OCc2cccnc2)cc1 [Entinostat] + CCNC(=O)c1noc(-c2cc(C(C)C)c(O)cc2O)c1-c1ccc(CN2CCOCC2)cc1 [Luminespib] (partner 0.01 µM)
# In short: as §1
Cell Line,relative viability ([1]; first compound 0.02 µM),relative viability ([1]; first compound 0.06325 µM),relative viability ([1]; first compound 0.2 µM),relative viability ([1]; first compound 0.6325 µM),relative viability ([1]; first compound 2 µM),relative viability ([2]; first compound 0.08 µM),relative viability ([2]; first compound 0.8 µM),relative viability ([2]; first compound 2.53 µM),relative viability ([2]; first compound 8 µM),relative viability ([3]; first compound 0.02 µM),relative viability ([3]; first compound 0.06325 µM),relative viability ([3]; first compound 0.2 µM),relative viability ([3]; first compound 0.6325 µM),relative viability ([3]; first compound 2 µM),relative viability ([4]; first compound 0.02 µM),relative viability ([4]; first compound 0.06325 µM),relative viability ([4]; first compound 0.2 µM),relative viability ([4]; first compound 0.6325 µM),relative viability ([4]; first compound 2 µM)
HARA,0.953,1.11,1.09,0.882,0.528,1.04,0.946,0.718,0.913,1.13,1.1,1.11,1.04,0.465,0.534,0.732,0.752,0.584,0.201
NCI-H2405,0.99,1.04,1.07,1.02,0.981,1.07,1,0.998,0.934,1.01,1.04,0.976,0.916,0.653,0.789,0.767,0.944,0.808,0.597
201T,1.31,1.05,1.1,1.1,1.09,1.13,1.09,1.03,1.02,1.09,1.11,1.05,1.01,0.872,1.03,1.04,0.995,0.925,0.747
PC-3 [JPC-3],1.14,1.05,0.991,1.07,0.772,1.03,1.01,1.08,0.978,0.853,0.814,0.824,0.409,0.508,0.726,0.668,0.5,0.51,0.365
NCI-H1734,0.825,0.948,0.695,0.804,0.563,0.786,0.913,0.927,0.483,0.895,1.1,1.06,0.753,0.472,0.227,0.204,0.185,0.213,0.181
NCI-H1651,0.784,0.786,0.723,0.821,0.551,0.787,0.75,0.985,0.794,0.958,0.923,0.921,0.926,0.84,0.795,1.01,0.742,0.724,0.64
NCI-H838,1.06,0.987,0.952,0.884,0.487,1.08,1.05,1.05,0.669,0.959,1.21,0.947,0.634,0.385,0.291,0.257,0.291,0.196,0.201
NCI-H1915,1.11,1.18,1.11,1.13,0.856,1.09,1.03,1.11,1.09,1.05,0.959,0.998,0.644,0.638,0.737,0.722,0.821,0.567,0.373
COR-L23,0.97,1.02,0.99,1.1,0.692,0.976,0.92,1.02,0.931,0.994,0.881,0.964,0.423,0.147,0.697,0.535,0.49,0.296,0.108
ChaGo-K-1,0.971,1.04,0.955,0.832,0.582,0.834,0.96,0.993,0.741,1.41,1.02,1.09,0.94,0.623,0.765,0.523,0.487,0.596,0.503
HOP-62,1.12,1.2,1.12,1.02,0.568,1.2,1.13,1.03,1.1,0.804,0.591,0.763,0.398,0.17,0.944,0.818,0.824,0.71,0.431
NCI-H1975,1.01,0.857,0.896,0.886,0.498,0.961,0.943,0.827,0.692,0.355,0.309,0.271,0.182,0.163,0.238,0.209,0.217,0.199,0.13
BEN,0.681,0.609,0.594,0.451,0.72,0.72,0.623,0.472,0.552,0.96,0.797,0.741,0.577,0.247,0.217,0.32,0.263,0.472,0.349
NCI-H1563,0.833,0.911,0.862,0.856,0.823,0.949,0.952,0.92,0.888,0.841,0.843,0.908,0.722,0.65,0.515,0.503,0.478,0.483,0.47
EMC-BAC-2,0.991,1.07,1.01,0.902,0.766,1.02,0.99,1.11,0.846,1.11,1.16,1.1,0.898,0.516,1.15,1.15,1.02,0.768,0.529
NCI-H650,1,1.01,1.06,1.03,0.919,1.09,1.03,1.02,0.936,1.02,0.916,0.773,0.426,0.171,0.824,0.76,0.829,0.672,0.427
LU99A,0.824,0.821,0.75,0.582,0.497,0.868,0.8,0.784,0.41,1.02,1.26,1,0.801,0.784,0.286,0.255,0.322,0.211,0.281

Cell Line,relative viability ([1]; first compound 0.02 µM),relative viability ([1]; first compound 0.06325 µM),relative viability ([1]; first compound 0.2 µM),relative viability ([1]; first compound 0.6325 µM),relative viability ([1]; first compound 2 µM),relative viability ([2]; first compound 0.08 µM),relative viability ([2]; first compound 0.8 µM),relative viability ([2]; first compound 2.53 µM),relative viability ([2]; first compound 8 µM),relative viability ([3]; first compound 0.02 µM),relative viability ([3]; first compound 0.06325 µM),relative viability ([3]; first compound 0.2 µM),relative viability ([3]; first compound 0.6325 µM),relative viability ([3]; first compound 2 µM),relative viability ([4]; first compound 0.02 µM),relative viability ([4]; first compound 0.06325 µM),relative viability ([4]; first compound 0.2 µM),relative viability ([4]; first compound 0.6325 µM),relative viability ([4]; first compound 2 µM)
NCI-H2347,1.09,0.962,0.861,1.07,0.657,0.836,0.862,0.531,0.84,0.969,1.01,0.557,0.318,0.262,0.337,0.378,0.348,0.193,0.081
NCI-H2009,1.28,1.24,1.19,1.11,0.932,1.19,1.27,1.24,0.931,1.03,1.05,0.912,0.814,0.497,1.05,0.967,0.974,0.771,0.762
HCC-827,1.01,1.06,0.99,1.08,0.97,1.04,1.13,1.09,0.647,0.979,1.02,0.976,0.979,0.539,0.505,0.309,0.401,0.202,0.197
NCI-H661,1,1.05,1.02,0.999,0.742,1.03,1.04,1.07,1.03,0.956,0.883,0.861,0.781,0.7,0.838,0.868,0.834,0.642,0.493
CAL-12T,1.12,1.49,1.19,1.21,0.941,1.21,1.08,1.25,0.577,1.19,0.973,0.96,0.99,0.665,0.502,0.402,0.459,0.461,0.364
PC-14,0.965,1.17,1.04,0.977,0.755,1.03,0.959,0.952,0.672,0.833,0.949,0.909,0.331,0.128,0.135,0.256,0.151,0.143,0.114
NCI-H23,0.85,,0.943,0.815,0.493,0.969,0.932,0.781,0.333,0.91,1.41,1.12,0.808,0.497,0.187,0.21,0.229,0.199,0.18
SK-LU-1,0.826,0.916,0.83,0.725,0.557,0.843,0.773,0.765,0.426,1.34,1.4,0.988,0.537,0.305,0.207,0.202,0.227,0.2,0.212
NCI-H727,0.945,0.807,0.82,0.865,0.676,0.988,0.971,0.926,0.671,0.714,0.965,0.754,0.574,0.329,0.326,0.413,0.364,0.328,0.459
SW 1573,0.931,1.07,1.09,0.877,0.688,0.949,0.846,0.846,0.791,1.06,1.14,1.19,0.836,0.787,0.531,0.35,0.162,0.262,0.217
A-427,1.11,1.28,1.16,0.855,0.676,1.15,1.17,0.972,0.983,0.99,0.975,0.966,0.916,0.632,1.01,1.03,0.83,0.651,0.582
NCI-H441,1.13,0.918,0.786,0.84,0.493,0.992,0.925,1.17,0.728,0.443,0.598,0.409,0.181,0.118,0.401,0.34,0.29,0.245,0.176
ABC-1,1.09,1.07,0.996,1.04,0.884,1.06,0.974,0.984,0.64,0.338,0.327,0.331,0.216,0.277,0.661,0.49,0.609,0.555,0.358
NCI-H2085,0.998,0.998,0.775,0.938,0.604,0.864,0.864,0.852,0.715,1.03,1.12,1.04,0.683,0.604,0.414,0.426,0.384,0.278,0.251
NCI-H647,1.17,1.16,1.13,1.14,0.667,1.22,1.24,1.18,1.15,1.02,1.01,0.869,0.216,0.0717,0.223,0.182,0.23,0.177,0.133
LC-2-ad,0.858,0.984,0.977,1.06,0.9,0.999,0.922,0.934,0.685,0.961,0.895,0.818,0.591,0.197,1.04,0.936,0.816,0.65,0.298
NCI-H3122,0.991,0.923,0.883,1.14,0.807,0.968,0.964,1.04,1.04,0.951,1.07,1.06,0.869,1.01,0.129,0.141,0.102,0.0843,0.073

# — the supplement of paper PMC10307832
